Measured values from patent US20130150346A1, “Use of FAAH Inhibitors for Treating Parkinson's Disease and Restless Legs Syndrome” (Ironwood Pharmaceutical, Inc., priority 2010, published 2013).

System: MPTP-lesioned macaques
Assay: Motor activity (total activity, high activity time and counts) in MPTP-lesioned macaques treated with URB597 and L-DOPA
Assay type: in vivo, cynomolgus monkeys (Macaca fascicularis)
Description: In addition, a quantitative assessment of marmoset activity was made using computer-operated passive infra-red sensors, essentially as described previously (Maccarrone et al., 2003, J. Neurochem. 85: 1018-1025; Visanji et al., 2009 J Pharm Exp Ther 328: 276-283). A single sensor containing a hemispherical lens (Guardall, Mississauga, ON, Canada) was mounted 1.5 m above the top of each the observation cage. The sensor was positioned so that motion was detected throughout the entirety of the cage below. The signal was fed via an RS-232 input to a computer. […] Activity counts were logged in 1-min epochs for the entire 6 h duration of the experiment and cumulated over the peak dose period of 2-4 h.
Assessment of marmoset activity was further assessed over time by quantifying the average activity of counts per minute of the same animals obtained prior to administration of MPTP (i.e., in the normal state). Activity over the same period of 2-4 h was calculated and used to identify minutes of high activity (a minute when activity was above the average per minute of the animal prior to MPTP). High activity counts (the total counts obtained in high activity minutes) were cumulated. High activity time (the number of high activity minutes) were also calculated.
Six cynomolgus monkeys (Macaca fascicularis) were used in each experiment. Animals were group housed with up to 3 animals per cage. The cage sizes exceeded UK, NIH, EU and CCAC minimum size recommendations, 2.4 m×3.0 m×1.0 m. The housing room was subject to a 12 hour light-dark cycle (lights on 7 a.m.), temperature 20-25° C. in a room containing only animals of the same sex. Fresh fruit, primate pellets and water was available ad libitum unless specifically described in other examples below.
This experiment examined the behavioral responses to five doses of URB597 (0.01, 0.03, 0.1, 0.3 or 1 mg/kg, i.v.) or vehicle in combination with L-DOPA in six parkinsonian macaques previously lesioned with MPTP.
The protocols for housing and acclimatization for the six parkinsonian MPTP-lesioned macaques were as those detailed in Example 6.
After acclimatization, the macaques in the MPTP cohort were rendered parkinsonian by once daily subcutaneous injection of 0.2 mg/kg MPTP, administered for 8-12 days, until the first appearance of parkinsonism symptoms. After this time, a parkinsonian syndrome evolved to a moderate to marked level, over approximately 30 days, and stabilized. Additional administrations of MPTP were given to some animals to titrate to similar degrees of parkinsonism in individuals across the group.
Sixty days after commencing MPTP administration, L-DOPA (20 mg/kg) was administered orally twice daily for six months. L-DOPA was administered as Madopar™ (L-DOPA in combination with benserazide). This treatment led to the development of motor fluctuations, including dyskinesia and wearing-off.
Dose-finding studies were performed to define a dose of L-DOPA for each individual macaque that provided the best anti-parkinsonian effect achievable and elicited hyperactivity that was stable and reproducible for that animal, on successive L-DOPA administrations.
L-DOPA was administered p.o. at a dose volume of 1 ml/kg, as Madopar™ (L-DOPA in combination with benserazide in the ratio 4:1). The vehicle for Madopar™ was water. On days when animals were not subject to behavioral observations they received maintenance oral L-DOPA, Madopar™ (30 mg/kg, p.o.) at approximately 9:00 a.m.
URB597 was obtained from Cayman Chemical (product #10046) and was formulated in 0.9% sterile saline containing 1% DMSO (v/v) (Sigma-Aldrich product #D2650) and 2% (v/v) Tween-80 (Sigma-Aldrich product #P4780) for dosing at a volume of 1 ml/kg.
For each URB597 concentration tested, requisite amounts of URB597 were weighed into sterile 50 ml sterile polypropylene tubes (Falcon™) (e.g., for the 1 mg/kg doses, approximately 35 mg was weighed). […]

NC(=O)c1cccc(-c2cccc(OC(=O)NC3CCCCC3)c2)c1 [URB597]
hyperactive behavior compared with treatment with L-DOPA alone (0.3 and 1.0 mg/ml (so in the source) URB597 i.v. and L-DOPA p.o.): significant reduction | effect on L-DOPA-induced hyperactivity (URB597 0.1 mg/kg i.v. + L-DOPA p.o.): ineffective | total activity versus L-DOPA treatment only (URB597 0.3 mg and 1.0 mg/kg i.v. + L-DOPA p.o., at 3 hrs, RM-ANOVA): significant effect | effect on L-DOPA-induced hyperactivity (URB597 0.3 mg/kg i.v. + L-DOPA p.o.): maximally effective | levels of L-DOPA-induced hyperactivity, dose dependence (URB597 0.01-1 mg/kg i.v. + L-DOPA p.o.): dose-dependently reduced | hyperactivity over the L-DOPA treatments alone (URB597 0.3 and 1.0 mg/kg i.v. + L-DOPA p.o., at 3 hrs post-administration of L-DOPA): lowered hyperactivity
